# Source: patent US20070099900A1, “Methods of modulating neurotrophin-mediated activity” (PainCeptor Pharma Corporation, priority 2005, published 2007)
# Legend:
# PC12 (TrkA & p75) = assay: 125I-NGF binding displacement in PC12 cells; parameters: species or system rat; conditions: for NGF binding displacement, dose-response curve: PC12 cells expressing TrkA and p75
# Method: The method for acquiring the PC12 data described in Table 1 is described herein in Example 1. Each experiment was done at least once with an n value of 4 for each data point. (n/a=not acquired)
# All cells were incubated at 37° C. in 5% CO2. PC12 cells were maintained in RPMI-1640 medium supplemented with 10% fetal bovine serum (FBS). A875 human melanoma cells were maintained in DMEM with 10% FBS. HEK 293 cells were stably transfected with human TrkA plasmid (see below) and maintained in DMEM with 10% FBS and G418 (600 μg/mL) for selection.
# NGF binding was evaluated using methods familiar to those who are skilled in the art. Briefly, cells expressing one or both NGF receptors (PC12: TrkA+p75; A875: p75 alone; HEK_TrkA: TrkA alone) were harvested by replacing the medium with calcium-magnesium free balanced salt (Grey's) solution and incubating at 37° C. for 15 min. For NGF binding, cells were resuspended at a concentration of 2×10^6 cells/mL in HEPES-Krebs-Ringer (HKR) buffer (10 mM HEPES; 125 mM NaCl; 4.8 mM KCl; 1.3 mM CaCl2; 1.2 mM MgSO4; 1.2 mM KH2PO4; 1 mg/ml BSA; 1 mg/ml glucose; pH 7.4) and exposed to ^125I-NGF (˜0.1 nM) in the presence or absence of varying concentrations of the compound. Non-specific binding was determined for reference by incubating ^125I-NGF with an excess of non-radioactive NGF in the abence of compound. Following a two-hour incubation period at 4° C., ^125I-NGF bound to the cells was quantified in a gamma radiation counter following separation from unbound NGF by filtration or centrifugation through glycerol (10% in HKR). Inhibition of binding was calculated as a percent of the specific binding (calculated as the differential between ^125I-NGF binding in the absence and presence of an excess of non-radioactive NGF without compound). Dose-response inhibition curves were typically generated with seven concentrations of a given compound, with three replicates for each concentration. For most compounds, multiple dose-response curves were generated.
# The IC50 data shown in Table 1 were acquired using the procedure described herein using PC12 cells.
# [1] = tested on: NGF-induced Erk 1/2 phosphorylation in PC12 cells; assay: NGF-induced Erk 1/2 phosphorylation, Western blot; assay type: cell-based, rat; conditions: NGF 5 ng/mL
# Method: This assay is useful for establishing that the compounds of the invention are functional NGF antagonists, not receptor agonists (an agonist could conceivably block NGF binding but actually activate the receptor). Erk 1/2 is a kinase activated down stream of TrkA and is a well studied member of the NGF-induced signal transduction cascade.
# PC12 cells expressing TrkA and p75 were acutely exposed to 5 ng/mL NGF (15 min; 37° C.; 5% CO2) that was pre-incubated (30 min; room temperature) with or without the compounds. Cells were lysed in Laemmli sample buffer (for SDS-PAGE) or a lysis buffer containing Triton X-100 (for ELISA). Following SDS-PAGE, proteins were electroblotted onto nitrocellulose and immunoprobed for phosphorylated Erk 1 and 2. Blocking and primary antibody incubations of immunoblots were performed in Tris-buffered saline-Tween (10 mM Tris, pH 8.0, 150 mM NaCl, and 0.2% Tween 20) supplemented with 5% (w/v) bovine serum albumin (BSA); secondary antibody incubations were performed in 5% (w/v) dried skim milk powder. Immunoreactive bands were detected by chemiluminescence.
# [2] = Writhing Test (acetic acid abdominal contraction test); assay type: in vivo; conditions: mice
# Method: The acetic acid abdominal contraction test (Martinez et al., Pain 1999; 81: 179) was used to determine the efficacy of different compounds in a model of acute visceral chemical nociception. […] Compound or vehicle was administered (i.p. or s.c.) 15-45 minutes prior to the acetic acid injection. Each episode of writhing is characterized by a lengthwise stretching of the torso with a concomitant arching of the back.
# Statistical analysis was performed using Prism™ 4.01 software package (GraphPad, San Diego, Calif., USA). The difference in response levels between treatment groups and control vehicle group was analyzed using an ANOVA followed by Bonferroni's method for post-hoc pair-wise comparisons. A p value <0.05 was considered to be significant
# Animals were treated with vehicle (VEH) or Compound 91 (5 mg/kg i.p.; [CMP 1] and 50 mg/kg i.p. [CMP 2])) 10-20 minutes before the intraperitoneal injection of acetic acid, as described in this example.
smiles,measurement,setting,value
"O=C(O)c1ccc(Cl)c(N2C(=O)c3ccc4c5c(ccc(c35)C2=O)C(=O)N(c2cc(C(=O)O)ccc2Cl)C4=O)c1 [Compound 18, 3-[7-(1-chloro-4-carboxy-phenyl)-1,3,6,8-tetraoxo-3,6,7,8-tetrahydro-1H-benzo[lmn][3,8]phenanthrolin-2-yl]-4-chloro-benzoic acid]","NGF binding displacement, dose-response curve",PC12 (TrkA & p75),effectively blocks NGF binding
same,PC12 (TrkA & p75) Single point (% max binding) Mean,PC12 (TrkA & p75); compound concentration 50 μM,*** (0 > *** > 30)
"O=C1c2ccc3c4c(ccc(c24)C(=O)N1c1ccc(S(=O)(=O)O)cc1)C(=O)N(c1ccc(S(=O)(=O)O)cc1)C3=O [Compound 54, 4-(1,3,6,8-Tetraoxo-7-(4-benzenesulfonic acid)-3,6,7,8-tetrahydro-1H-benzo[lmn][3,8]phenanthrolin-2-yl)-benzenesulfonic acid]",PC12 (TrkA & p75) Single point (% max binding) Mean,PC12 (TrkA & p75); compound concentration 50 μM,*** (0 > *** > 30)
"O=C(O)c1ccc(Cl)c(N2C(=O)c3ccc4c5c(ccc(c35)C2=O)C(=O)OC4=O)c1 [Compound 58, 4-Chloro-3-(1,3,6,8-tetraoxo-1,3,6,8-tetrahydro-2-oxa-7-aza-pyren-7-yl)-benzoic acid]",PC12 (TrkA & p75) Single point (% max binding) Mean,PC12 (TrkA & p75); compound concentration 50 μM,*** (0 > *** > 30)
"O=C(O)CCCN1C(=O)c2ccc3c4c(ccc(c24)C1=O)C(=O)N(c1cc(C(=O)O)ccc1Cl)C3=O [Compound 59, 3-[7-(3-Carboxy-propyl)-1,3,6,8-tetraoxo-3,6,7,8-tetrahydro-1H-benzo[lmn][3,8]phenanthrolin-2-yl]-4-chloro-benzoic acid]",PC12 (TrkA & p75) Single point (% max binding) Mean,PC12 (TrkA & p75); compound concentration 50 μM,*** (0 > *** > 30)
O=C([O-])c1ccc2nc3c4ccc5c6c(ccc(c(=O)n3c2c1)c46)c(=O)n1c2cc(C(=O)[O-])ccc2nc51.[Na+].[Na+] [Compound 91],"NGF binding displacement, dose-response curve",PC12 (TrkA & p75),effectively blocks NGF binding
same,Inhibition of NGF-induced Erk 1/2 phosphorylation,[1],inhibits NGF-induced Erk 1/2 phosphorylation
same,Antinociceptive effect in the Writhing Test,"[2]; 5 and 50 mg/kg i.p., p<0.01 vs vehicle",significant antinociceptive effects
same,Chemically-induced abdominal contractions (number in 30 minutes),"[2]; i.p., n=6, vehicle 58±4, dose of the value (5 or 50 mg/kg) not stated",16±9
"O=c1c2ccc3c4c(ccc(c24)c2nc4ccccc4n12)c(=O)n1c2ccccc2nc31.[K+] [Compound 92, 1,3,6-trioxo-1,2,3,6-tetrahydro-benzo[lmn]benzo[4,5]imidazo[2,1-b][3,8]diphenanthroline potassium salt]",PC12 (TrkA & p75) Single point (% max binding) Mean,PC12 (TrkA & p75); compound concentration 50 μM,* (* > 50)
"O=C(O)c1cccc(N2C(=O)c3ccc4c(=O)n5c6cc(C(=O)O)ccc6nc5c5ccc(c3c45)C2=O)c1 [Compound 93, 2-(3-Carboxy-phenyl)-1,3,6-trioxo-1,2,3,6-tetrahydro-benzo[lmn]benzo[4,5]imidazo[2,1-b][3,8]phenanthroline-9-carboxylic acid]",PC12 (TrkA & p75) Single point (% max binding) Mean,PC12 (TrkA & p75); compound concentration 50 μM,** (30 > ** > 50)
O=C(O)CCCN1C(=O)c2ccc3c4c(ccc(c24)C1=O)C(=O)OC3=O [Compound 94],PC12 (TrkA & p75) Single point (% max binding) Mean,PC12 (TrkA & p75); compound concentration 25 μM,*** (0 > *** > 30)
"O=C(O)CCCN1C(=O)c2ccc3c(=O)n4c5cc(C(=O)O)ccc5nc4c4ccc(c2c34)C1=O [Compound 95, 2-(3-Carboxy-propyl)-1,3,6-trioxo-1,2,3,6-tetrahydro-benzo[lmn]benzo[4,5]imidazo[2,1-b][3,8]phenanthroline-9-carboxylic acid]",PC12 (TrkA & p75) Single point (% max binding) Mean,PC12 (TrkA & p75); compound concentration 25 μM,* (* > 50)
"O=C(O)c1ccc(Cl)c(N2C(=O)c3ccc4c(=O)n5c6ccccc6nc5c5ccc(c3c45)C2=O)c1 [Compound 98, 2-(5-Carboxy-2-chloro-phenyl)-1,3,6-trioxo-1,2,3,6-tetrahydro-benzo[lmn]benzo[4,5]imidazo[2,1-b][3,8]phenanthroline-9]",PC12 (TrkA & p75) Single point (% max binding) Mean,PC12 (TrkA & p75); compound concentration 25 μM,*** (0 > *** > 30)
"O=C(O)c1ccc(Cl)c(N2C(=O)c3ccc4c(=O)n5c6cc(Cl)ccc6nc5c5ccc(c3c45)C2=O)c1 [Compound 99, 2-(5-Carboxy-2-chloro-phenyl)-1,3,6-trioxo-1,2,3,6-tetrahydro-9-chloro-benzo[lmn]benzo[4,5]imidazo[2,1-b][3,8]phenanthroline]",PC12 (TrkA & p75) Single point (% max binding) Mean,PC12 (TrkA & p75); compound concentration 10 μM,*** (0 > *** > 30)
"O=C(O)c1ccc(Cl)c(N2C(=O)c3ccc4c(=O)n5c6cc([N+](=O)[O-])ccc6nc5c5ccc(c3c45)C2=O)c1 [Compound 100, 2-(5-Carboxy-2-chloro-phenyl)-1,3,6-trioxo-1,2,3,6-tetrahydro-9-nitro-benzo[lmn]benzo[4,5]imidazo[2,1-b][3,8]phenanthroline]",PC12 (TrkA & p75) Single point (% max binding) Mean,PC12 (TrkA & p75); compound concentration 10 μM,*** (0 > *** > 30)
"COc1ccc2nc3c4ccc5c6c(ccc(c(=O)n3c2c1)c64)C(=O)N(c1cc(C(=O)O)ccc1Cl)C5=O [Compound 101, 2-(5-Carboxy-2-chloro-phenyl)-1,3,6-trioxo-1,2,3,6-tetrahydro-9-methoxy-benzo[lmn]benzo[4,5]imidazo[2,1-b][3,8]phenanthroline]",PC12 (TrkA & p75) Single point (% max binding) Mean,PC12 (TrkA & p75); compound concentration 10 μM,** (30 > ** > 50)
"COC(=O)c1ccc2nc3c4ccc5c6c(ccc(c(=O)n3c2c1)c64)C(=O)N(c1cc(C(=O)O)ccc1Cl)C5=O [Compound 102, Methyl-2-(5-Carboxy-2-chloro-phenyl)-1,3,6-trioxo-1,2,3,6-tetrahydro-benzo[lmn]benzo[4,5]imidazo[2,1-b][3,8]phenanthroline-9-carboxylic acid ester]",PC12 (TrkA & p75) Single point (% max binding) Mean,PC12 (TrkA & p75); compound concentration 10 μM,* (* > 50)
